Data as given in patent US8343458B2, “Probes for in vivo targeting of active cysteine proteases” (The Board of Trustees of the Leland Stanford Junior …, priority 2008, dated 2013).
“And” between values parts separate entries of the source, which are not always exact repeats. Identical values can stand only once.

Assays:
Assay type in all cases: in vivo, mouse
C2C12/Ras tumors = assay: Biodistribution in nude mice bearing subcutaneous C2C12/Ras tumors; details: for Biodistribution: Blood / Biodistribution: Bone / Biodistribution: Brain / Biodistribution: Heart / Biodistribution: Intestines / Biodistribution: Kidney / Biodistribution: Liver / Biodistribution: Lung / Biodistribution: Muscle / Biodistribution: Pancreas / Biodistribution: Spleen / Biodistribution: Stomach / Biodistribution: Tumor / Tumor/Blood ratio / Tumor/Muscle ratio: C2C12/Ras tumor mice, i.v. 740 kBq
Method: All animal studies were carried out in compliance with Federal and local institutional rules for the conduct of animal experimentation. Female athymic nude mice (nu/nu) were obtained from Charles River Laboratories (Boston, Mass.) at 7-8 weeks old and kept under sterile conditions. The nude mice were inoculated subcutaneously in the right shoulder with 2×10^6 cultured C2C12/Ras cells or 5×10^6 MDA-MB-435 cells. When the tumors reach 0.5-0.8 cm in diameter, the tumor bearing mice were subjected to in vivo biodistribution studies. For biodistribution studies, the mice bearing C2C12/Ras or MDA-MB-435 tumor xenografts (n=3 for each group) were injected with 740 KBq (20 μCi) of ^64Cu labeled tracer through the tail vein and sacrificed at different time points post injection (p.i.). Tumor and normal tissues of interest were removed and weighed, and their radioactivity was measured in a gamma-counter. The radioactivity uptake in the tumor and normal tissues was expressed as a percentage of the injected radioactive dose per gram of tissue (% ID/g).
We next examined the overall biodistribution of ^64Cu-Z-FK(DOTA)-AOMK using athymic nude mice carrying subcutaneously grafted C2C12/Ras and MDA-MB-435 tumors. […] Importantly, we observed rapid accumulation of radioactivity in the C2C12/Ras tumors expressing high levels of cysteine cathepsins (0.35±0.13% ID/g at 0.5 h p.i.). This activity remained in the tumors resulting in an uptake of 0.27±0.05% ID/g at 24 h p.i. For the MDA-MB-435 tumors with lower cysteine cathepsin expression, tumor uptake was approximately 2 fold lower at each time point relative to the C2C12/Ras tumors (P<0.05). […] The highest radioactivity was found in the liver due to high endogenous expression of various cysteine cathepsins. Moderate renal accumulation was also observed at all times in both tumor models.
Data are expressed as the percentage administered activity (injected dose) per gram of tissue (% ID/g) after intravenous injection of 740 kBq (20 μCi) of ^64Cu-Z-FK(DOTA)-AOMK at 0.5, 2, and 24 h pi (n=3). Significant lower tumor uptake and tumor/blood, tumor/muscle ratio in MDA-MB-435 breast cancer (P<0.05) were observed.

C2C12/Ras tumor = assay: MicroPET imaging of C2C12/Ras tumor-bearing mice; details: 2 and 24 hours post injection, 5.55 MBq i.v.
Excerpt: (§1) FIG. 3 is a composite photograph showing mouse uptake of labeled probe, i.e., a series of photographs of imaged mice. For purposes of reproduction, the image is converted to black and white and reversed. Lightest to darkest is a range between 0% ID (injected dose)/g and 1% ID/g. […] Arrows indicate location of tumors.
(§2) We performed micro PET imaging of mice bearing the MDA-MB-435 and C2C12/Ras tumors. The static microPET images (5 or 10-min scan, three tumor bearing mice were used for each study) of ^64Cu-Z-FK(DOTA)-AOMK are illustrated in coronal images of the subcutaneously implanted tumor-bearing mice (FIG. 3). […] The tumor, indicated by the arrow, is not clearly illuminated.
(§3) PET imaging of tumor-bearing mice is performed on a microPET R4 rodent model scanner (Concorde Microsystems Inc, Knoxyille, Tenn.). The mice bearing C2C12/Ras and MDA-MB-435 tumors were injected with 5.55 MBq (150 μCi) of ^64Cu AOMK probe via the tail vein. At different times p.i., the mice were anesthetized with 2% isoflurane, and placed in the prone position and near the center of the field of view of microPET. The 5 or 10-min static scans were obtained and the images were reconstructed by a two-dimensional ordered subsets expectation maximum (OSEM) algorithm.

MDA-MB-435 tumor = assay: MicroPET imaging of MDA-MB-435 tumor-bearing mice; details: MDA-MB-435 tumor, 1, 4 and 28 hours post injection
Excerpt: as §1, §2, §3

## Cc1cccc(C)c1C(=O)OCC(=O)[C@H](CCCCNC(=O)CN1CCN(CC(=O)[O-])CCN(CC(=O)O)CCN(CC(=O)[O-])CC1)NC(=O)[C@H](Cc1ccccc1)NC(=O)OCc1ccccc1.[64Cu+2] [^64Cu-Z-FK(DOTA)-AOMK]
C2C12/Ras tumors; 0.5 h p.i.
  Biodistribution: Blood: 0.24 ± 0.07 % ID/g
  Biodistribution: Bone: 0.09 ± 0.02 % ID/g
  Biodistribution: Brain: 0.04 ± 0.03 % ID/g
  Biodistribution: Heart: 0.25 ± 0.02 % ID/g
  Biodistribution: Intestines: 1.84 ± 0.57 % ID/g
  Biodistribution: Kidney: 0.74 ± 0.29 % ID/g
  Biodistribution: Liver: 3.71 ± 1.04 % ID/g
  Biodistribution: Lung: 0.50 ± 0.17 % ID/g
  Biodistribution: Muscle: 0.06 ± 0.01 % ID/g
  Biodistribution: Pancreas: 0.25 ± 0.22 % ID/g
  Biodistribution: Spleen: 0.35 ± 0.24 % ID/g
  Biodistribution: Stomach: 0.63 ± 0.69 % ID/g
  Biodistribution: Tumor: 0.35±0.13 % ID/g
  Tumor/Blood ratio: 1.41 ± 0.32
  Tumor/Muscle ratio: 5.24 ± 1.35
C2C12/Ras tumors; 2 h p.i.
  Biodistribution: Blood: 0.24 ± 0.03 % ID/g
  Biodistribution: Bone: 0.10 ± 0.01 % ID/g
  Biodistribution: Brain: 0.02 ± 0.00 % ID/g
  Biodistribution: Heart: 0.30 ± 0.08 % ID/g
  Biodistribution: Intestines: 1.38 ± 0.54 % ID/g
  Biodistribution: Kidney: 0.67 ± 0.19 % ID/g
  Biodistribution: Liver: 3.59 ± 1.01 % ID/g
  Biodistribution: Lung: 0.59 ± 0.22 % ID/g
  Biodistribution: Muscle: 0.05 ± 0.01 % ID/g
  Biodistribution: Pancreas: 0.18 ± 0.08 % ID/g
  Biodistribution: Spleen: 0.24 ± 0.04 % ID/g
  Biodistribution: Stomach: 0.32 ± 0.06 % ID/g
  Biodistribution: Tumor: 0.30 ± 0.03 % ID/g
  Tumor/Blood ratio: 1.25 and 1.25 ± 0.21
  Tumor/Muscle ratio: 5.64 and 5.64 ± 0.98
C2C12/Ras tumors; 24 h p.i.
  Biodistribution: Blood: 0.28 ± 0.10 % ID/g
  Biodistribution: Bone: 0.14 ± 0.10 % ID/g
  Biodistribution: Brain: 0.05 ± 0.01 % ID/g
  Biodistribution: Heart: 0.46 ± 0.07 % ID/g
  Biodistribution: Intestines: 0.46 ± 0.04 % ID/g
  Biodistribution: Kidney: 0.72 ± 0.05 % ID/g
  Biodistribution: Liver: 1.86 ± 0.57 % ID/g
  Biodistribution: Lung: 0.65 ± 0.15 % ID/g
  Biodistribution: Muscle: 0.06 ± 0.02 % ID/g
  Biodistribution: Pancreas: 0.21 ± 0.06 % ID/g
  Biodistribution: Spleen: 0.42 ± 0.06 % ID/g
  Biodistribution: Stomach: 0.27 ± 0.11 % ID/g
  Biodistribution: Tumor: 0.27±0.05 % ID/g
  Tumor/Blood ratio: 0.99 ± 0.24
  Tumor/Muscle ratio: 4.07 ± 1.13
C2C12/Ras tumors; both tumor models, nude mice, i.v.
  Blood clearance: rapid clearance in blood
C2C12/Ras tumor
  MicroPET tumor visualization / contrast: clearly visualized with good tumor to contralateral background contrast
MDA-MB-435 tumor
  MicroPET tumor visualization / contrast: low tumor uptake and poor tumor to normal tissue contrast
